Measured values taken from patent US12590118B2, “Salt and crystal form of steroid derivative regulator” (Shanghai Hansoh Biomedical Co., Ltd., priority 2019, dated 2026).

Molecular target: GABA-A receptor
Assay: 35S-TBPS binding assay (GABAA receptor binding ability assay)
Design: species or system Sprague-Dawley rat
Settings: rat cerebral cortex cell membrane, 5 μM GABA, 2 nM 35S-TBPS; read-out: IC50 on inhibiting the TBPS binding activity, 35S-TBPS bindng assay
Method: 1. The cerebral cortex of male Sprague-Dawley rat was isolated.
2. A pre-chilled 0.32 M sucrose solution (one tablet of protease inhibitor was added per 100 mL) was added to the cerebral cortex (the volume of sucrose solution was 10 times the volume of the cerebral cortex). The mixture was crushed with a 50 mL glass tissue homogenizer in batches and mixed well.
3. The mixture was centrifuged at 1,500 g, 4° C. for 10 minutes, and the supernatant was collected.
4. The mixture was centrifuged at 20,000 g, 4° C. for 30 minutes, and the supernatant was discarded.
5. The precipitate was resuspended with the pre-chilled phosphate buffer saline (PBS) (one tablet of protease inhibitor was added per 100 mL). An average of 4 mL of PBS was added per rat, and the mixture was mixed well with a glass tissue homogenizer.
6. The mixture was centrifuged at 10,000 g, 4° C. for 10 minutes, and the supernatant was discarded.
7. Steps 5 and 6 were repeated three times.
8. Finally, the precipitate was resuspended with 4 volumes of PBS. The resulting solution was dispensed, frozen in liquid nitrogen, and stored at −80° C.
9. The protein concentration was measured by the bicinchoninic acid (BCA) method.
1. 230 μL of PBS was added to each well of a well plate with 1.1 mL volume.
2. 60 μL of the cerebral cortex cell membrane (5 μg/μL) solution was added to each well, and the mixture was mixed well.
3. The test compound (3 μL per well) was added, and the plate was incubated at 25° C. for 5 minutes. The DMSO concentration was 1%. The initial compound concentration was […], and a
3-fold dilution in gradient was carried out to obtain a total of 8 gradients and 2 replicates. 1% DMSO was used as a negative control, and 10 μM P026-2 was used as a positive control.
4. GABA was added at a final concentration of 5 μM, and incubated at 25° C. for 5 minutes. 1 mM GABA solution was formulated, and 1.5 μL of the solution was added to each well.
5. 35S-TBPS was added at a final concentration of 2 nM. The concentration of isotope mother solution was 9.7 μM. After dilution with PBS for 100 times, 6 μL of the diluted isotope solution was added to each well.
6. The plate was incubated at 4° C. for 20 hours.
7. The FilterMate GF/C plate was pre-treated with 0.5% PEI, and incubated at 4° C. for 1 hour.
8. The FilterMate GF/C plate was washed with Universal Harvester twice, 50 mL PBS each time.
9. The reaction solution was transferred to the GF/C plate, and each well was washed 4 times with 900 μL of PBS.
10. The washed GF/C plate was placed at 55° C. and dried for 10 minutes.
11. 40 μL of scintillation solution was added to each well, and the CPM value was read with TopCount.
In the experiment, the CPM (counts per minute) value was read with TopCount. According to the readings of the High control (DMSO) and the Low control (10 μM of the positive compound) experimental groups, the % inhibition was calculated based on the following formula: % Inhibition=100×(CPMHigh control−CPMsample)/(CPMHigh control−CPMLow control)
The IC50 of the compound was calculated according to the following 4-parameter nonlinear logic formula: Y=Bottom+(Top−Bottom)/(1+10^((Log IC50−X)*HillSlope)),
wherein: • X represents the log of compound concentration, • Y represents the % Inhibition.
The effect of the compound of the present invention on the TBPS binding activity was determined by the above test, and the measured IC50 values are shown in Table 5.

Row | SMILES | IC50 [µM]
1 | CC[C@@H]1C[C@H](C(=O)Cn2ccc(C(F)(F)F)n2)[C@@]2(C)CC[C@H]3[C@@H](CC[C@@H]4C[C@](C)(O)CC[C@@H]43)[C@H]12 [Example 91, 1-((3R,5R,8R,9R,10S,13S,14S,15R,17S)-15-Ethyl-3-hydroxy-3,13-dimethylhexadecahydro-1H-cyclopenta[a]phenanthren-17-yl)-2-(3-(trifluoromethyl)-1H-pyrazol-1-yl)ethan-1-one] | 0.0252
2 | C[C@@H]1C[C@H](C(=O)Cn2ccnn2)[C@@]2(C)CC[C@H]3[C@@H](CC[C@@H]4C[C@](C)(O)CC[C@@H]43)[C@H]12 [Example 42, 1-((3R,5R,8R,9R,10S,13S,14S,15R,17S)-3-Hydroxy-3,13,15-trimethylhexadecahydro-1H-cyclopenta[a]phenanthren-17-yl)-2-(1H-1,2,3-triazol-1-yl)ethan-1-one] | 0.0246
3 | C[C@@]1(O)CC[C@H]2[C@H](CC[C@@H]3[C@@H]2CC[C@@]2(C)[C@H]3[C@@H]3C[C@@H]3[C@@H]2C(=O)Cn2cc([N+](=O)[O-])cn2)C1 [Example 73, 1-((2R,4aS,4bR,6aS,7S,7aS,8aR,8bR,8cR,10aR)-2-Hydroxy-2,6a-dimethyloctadecahydrocyclopropa[4,5]cyclopenta[1,2-a]phenanthren-7-yl)-2-(4-nitro-1H-pyrazol-1-yl)ethan-1-one] | 0.0102
4 | C[C@@H]1C[C@H](C(=O)Cn2cc(C(F)(F)F)cn2)[C@@]2(C)CC[C@H]3[C@@H](CC[C@@H]4C[C@](C)(O)CC[C@@H]43)[C@H]12 [Example 39, 1-((3R,5R,8R,9R,10S,13S,14S,15R,17S)-3-Hydroxy-3,13,15-trimethylhexadecahydro-1H-cyclopenta[a]phenanthren-17-yl)-2-(4-(trifluoromethyl)-11H-pyrazol-1-yl)ethan-1-one] | 0.0062
5 | C[C@@]1(O)CC[C@H]2[C@H](CC[C@@H]3[C@@H]2CC[C@@]2(C)[C@H]3[C@@H]3C[C@@H]3[C@@H]2C(=O)Cn2cc(-c3ncco3)cn2)C1 [Example 85, 1-((2R,4aS,4bR,6aS,7S,7aS,8aR,8bR,8cR,10aR)-2-Hydroxy-2,6a-dimethyloctadecahydrocyclopropa[4,5]cyclopenta[1,2-a]phenanthren-7-yl)-2-(4-(oxazol-2-yl)-1H-pyrazol-1-yl)ethan-1-one] | 0.0158
6 | C[C@@]1(O)CC[C@H]2[C@H](CC[C@@H]3[C@@H]2CC[C@@]2(C)[C@H]3[C@@H]3C[C@@H]3[C@@H]2C(=O)Cn2nccn2)C1 [Example 5, 1-((2R,4aS,4bR,6aS,7S,7aS,8aR,8bR,8cR,10aR)-2-Hydroxy-2,6a-dimethyloctadecahydrocyclopropa[4,5]cyclopenta[1,2-a]phenanthren-7-yl)-2-(2H-1,2,3-triazol-2-yl)ethan-1-one] | 0.0147
7 | C[C@@H]1C[C@H](C(=O)Cn2cc(C#N)c(C3CC3)n2)[C@@]2(C)CC[C@H]3[C@@H](CC[C@@H]4C[C@](C)(O)CC[C@@H]43)[C@H]12 [Example 47, 3-Cyclopropyl-1-(2-((3R,5R,8R,9R,10S,13S,14S,15R,17S)-3-hydroxy-3,13,15-trimethylhexadecahydro-1H-cyclopenta[a]phenanthren-17-yl)-2-oxoethyl)-1H-pyrazole-4-carbonitrile] | 0.0076
8 | C[C@@H]1C[C@H](C(=O)Cn2cc(Cl)cn2)[C@@]2(C)CC[C@H]3[C@@H](CC[C@@H]4C[C@](C)(O)CC[C@@H]43)[C@H]12 [Example 68, 2-(4-Chloro-1H-pyrazol-1-yl)-1-((3R,5R,8R,9R,10S,13S,14S,15R,17S)-3-hydroxy-3,13,15-trimethylhexadecahydro-1H-cyclopenta[a]phenanthren-17-yl)ethan-1-one] | 0.0096
9 | C[C@@]1(O)CC[C@H]2[C@H](CC[C@@H]3[C@@H]2CC[C@@]2(C)[C@H]3[C@@H]3C[C@@H]3[C@@H]2C(=O)Cn2ccc(C(F)(F)F)n2)C1 [Example 4, 1-((2R,4aS,4bR,6aS,7S,7aS,8aR,8bR,8cR,10aR)-2-Hydroxy-2,6a-dimethyloctadecahydrocyclopropa[4,5]cyclopenta[1,2-a]phenanthren-7-yl)-2-(3-(trifluoromethyl)-1H-pyrazol-1-yl)ethan-1-one] | 0.0031
10 | CC[C@@H]1C[C@H](C(=O)Cn2nccn2)[C@@]2(C)CC[C@H]3[C@@H](CC[C@@H]4C[C@](C)(O)CC[C@@H]43)[C@H]12 [Example 94, 1-((3R,5R,8R,9R,10S,13S,14S,15R,17S)-15-Ethyl-3-hydroxy-3,13-dimethylhexadecahydro-1H-cyclopenta[a]phenanthren-17-yl)-2-(2H-1,2,3-triazol-2-yl)ethan-1-one] | 0.0239
11 | CCOC(=O)c1cnn(CC(=O)[C@H]2[C@H]3C[C@H]3[C@H]3[C@@H]4CC[C@@H]5C[C@](C)(O)CC[C@@H]5[C@H]4CC[C@@]32C)c1 [Example 35, Ethyl 1-(2-((2R,4aS,4bR,6aS,7S,7aS,8aR,8bR,8cR,10aR)-2-hydroxy-2,6a-dimethyloctadecahydrocyclopropa[4,5]cyclopenta[1,2-a]phenanthren-7-yl)-2-oxoethyl)-1H-pyrazole-4-carboxylate] | 0.005
12 | CC[C@@H]1C[C@H](C(=O)Cn2nc(C#N)cc2C#N)[C@@]2(C)CC[C@H]3[C@@H](CC[C@@H]4C[C@](C)(O)CC[C@@H]43)[C@H]12 [Example 95, 1-(2-((3R,5R,8R,9R,10S,13S,14S,15R,17S)-15-Ethyl-3-hydroxy-3,13-dimethylhexadecahydro-1H-cyclopenta[a]phenanthren-17-yl)-2-oxoethyl)-1H-pyrazole-3,5-dicarbonitrile] | 0.0162
13 | C[C@@]1(O)CC[C@H]2[C@H](CC[C@@H]3[C@@H]2CC[C@@]2(C)[C@H]3[C@@H]3C[C@@H]3[C@@H]2C(=O)Cn2nc(C#N)cc2C#N)C1 [Example 84, 1-(2-((2R,4aS,4bR,6aS,7S,7aS,8aR,8bR,8cR,10aR)-2-Hydroxy-2,6a-dimethyloctadecahydrocyclopropa[4,5]cyclopenta[1,2-a]phenanthren-7-yl)-2-oxoethyl)-1H-pyrazole-3,5-dicarbonitrile] | 0.0061
14 | C[C@@]1(O)CC[C@H]2[C@H](CC[C@@H]3[C@@H]2CC[C@@]2(C)[C@H]3[C@@H]3C[C@@H]3[C@@H]2C(=O)Cn2cc(F)cn2)C1 [Example 30, 2-(4-Fluoro-1H-pyrazol-1-yl)-1-((2R,4aS,4bR,6aS,7S,7aS,8aR,8bR,8cR,10aR)-2-hydroxy-2,6a-dimethyloctadecahydrocyclopropa[4,5]cyclopenta[1,2-a]phenanthren-7-yl)ethan-1-one] | 0.0287
15 | C[C@@]1(O)CC[C@H]2[C@H](CC[C@@H]3[C@@H]2CC[C@@]2(C)[C@H]3[C@@H]3C[C@@H]3[C@@H]2C(=O)Cn2ncnn2)C1 [Example 7, 1-((2R,4aS,4bR,6aS,7S,7aS,8aR,8bR,8cR,10aR)-2-Hydroxy-2,6a-dimethyloctadecahydrocyclopropa[4,5]cyclopenta[1,2-a]phenanthren-7-yl)-2-(2H-tetrazol-2-yl)ethan-1-one] | 0.0213
16 | Cc1c(C#N)cnn1CC(=O)[C@H]1[C@H]2C[C@H]2[C@H]2[C@@H]3CC[C@@H]4C[C@](C)(O)CC[C@@H]4[C@H]3CC[C@@]21C [Example 29, 1-(2-((2R,4aS,4bR,6aS,7S,7aS,8aR,8bR,8cR,10aR)-2-Hydroxy-2,6a-dimethyloctadecahydrocyclopropa[4,5]cyclopenta[1,2-a]phenanthren-7-yl)-2-oxoethyl)-5-methyl-1H-pyrazole-4-carbonitrile] | 0.0154
